Data taken from a melting point compilation (Tetko et al.).
Peptide text beside a SMILES is read from it.

For CCCCCCCCCCCCOc1ccc(C(=O)O)cc1, the melting point was 134 °C.

O=Cc1c(-c2ccc(Cl)cc2)[nH]c2ccccc12 gave a melting point of 257 to 258 °C.

CCOC(=O)c1c(Cl)cc(C)cc1N1CCCC1 showed a melting point of 78 to 79 °C.

With C=CC(=O)ON1C(=O)CCC1=O the melting point was 69 °C.

With Cn1cncc1C(=O)O the melting point was 247 to 248 °C.

In the case of NCC(=O)N[C@@H](CCC(=O)O)C(=O)O (H-Gly-Glu-OH), the melting point was 155 to 158 °C.

FC(F)(F)c1cncc(C(F)(F)F)c1 gave a melting point of 37 °C.

CC(C)(C)c1cc([N+](=O)[O-])cc([N+](=O)[O-])c1O gave a melting point of 126 °C.

In the case of O=C1OC(O)c2c(Cl)c(Cl)c(Cl)c(Cl)c21 (configuration not stated), the melting point was 240 to 248 °C.

Work on CC(=O)CC(=O)Nc1ccccc1Cl yielded a melting point of 105 °C.

Compound CCCC(O)(CCC)C1(C)CCC(C(=O)O)C(C)(C)O1 (configuration not stated) has a melting point of 111 to 112 °C.

Cc1ccc(C(c2ccc(C)o2)c2cc(Br)cc(Br)c2O)o1 gave a melting point of 88 °C.

CC12NC(Cc3ccccc31)c1ccccc12 (configuration not stated) gave a melting point of 68.8 °C.

For Cc1cc(Br)ccc1C(=O)O, the melting point was 183 °C.

O=C1Nc2c(Cl)cccc2C1=O gave a melting point of 190 °C.

In the case of CC1(C)SC2C(N3C(=O)C(c4ccccc4)NC3(C)C)C(=O)N2C1C(=O)O (configuration not stated), the melting point was 190 °C.

O=C1C=CC(=O)c2c(O)ccc(O)c21 gave a melting point of 237 °C.

O=C(O)c1cc(Cl)ccc1F showed a melting point of 149 °C.

With O=C1c2cccc(O)c2C(=O)c2c(O)cc(CO)cc21 the melting point was 224 °C.

For CC12CCC(CC1=NO)C2(C)C (configuration not stated), the melting point was 118 °C.

For C[C@]12CCC(=O)C=C1CC[C@@H]1[C@@H]2CC[C@]2(C)C(=O)CC[C@@]12O, the melting point was 256 to 260 °C.

In the case of O=C(NCOC(=O)c1ccc(O)cc1)c1ccccc1, the melting point was 165 to 166 °C.

Compound CC(=O)Nc1ccccc1C#Cc1ccccc1 has a melting point of 118 to 119 °C.

c1ccc2c(c1)nnc1ccccc12 gave a melting point of 158 °C.

Work on COc1ccc(C=C2N=C(c3ccccc3)OC2=O)cc1OC yielded a melting point of 132 to 133 °C.

Work on O=[N+]([O-])c1ccc(-n2cc([N+](=O)[O-])c(-c3ccccc3)n2)cc1 yielded a melting point of 230 to 232 °C.

C=CC(C)Cl (configuration not stated) showed a melting point of -50 °C.

With O=C(O)c1cc(C(F)(F)F)ccc1N1CCOCC1 the melting point was 175 to 177 °C.

Nc1cccc(-n2ccccc2=O)c1 showed a melting point of 182 °C.

Compound Nc1ccc(N=Nc2ccccc2)c(N)n1 has a melting point of 139 °C.

With N#CC(=Cc1ccccc1)C(=O)O the melting point was 175 °C.

With C#CC[C@H](NC(=O)OC(C)(C)C)C(=O)O the melting point was 85.5 °C.

In the case of COc1ccc(CC2c3cc(OC)c(OC)cc3CCN2C)cc1O (configuration not stated), the melting point was 184 °C.

Compound CC(C)n1nnc2cc(C(=O)Cl)ccc21 has a melting point of 140 to 143 °C.

O=Cc1cc(C#Cc2ccccc2)cs1 showed a melting point of 115 to 118 °C.

Compound O=C1N[C@H]2[C@H](CS[C@H]2CCCCC(=O)ON2C(=O)CCC2=O)N1 has a melting point of 212 °C.

Work on NC(C(=O)O)(c1ccccc1)C1CCC1 (configuration not stated) yielded a melting point of 256 to 258 °C.

Compound O=C1c2[nH]c3ccc(Br)cc3c2CCN1Cc1ccc(Cl)cc1 has a melting point of 233 °C.

Cc1nc(-c2ccccc2)ncc1CO gave a melting point of 85 to 86 °C.

CN1CCN(c2ccc(C=O)cc2)CC1 showed a melting point of 57 to 60 °C.

O=Cc1nc2ccccc2c2ncccc12 gave a melting point of 144 to 145 °C.

Compound Cc1cccc(N/N=C(\C#N)c2nc(C)c(/N=N/c3ccccc3)s2)c1 has a melting point of 211 °C.

For Brc1ccc2nsnc2c1, the melting point was 59 to 60 °C.

CCC1NC(=O)c2cc(S(N)(=O)=O)c(Cl)cc2N1 (configuration not stated) showed a melting point of 251 °C.

In the case of Cc1c(C(=O)CCl)sc2ccc(Cl)cc12, the melting point was 158 to 160 °C.

c1cnc2ccc3ncccc3c2c1 showed a melting point of 177 °C.

For CCCC(CCC)C(C(=O)O)C(=O)OCC (configuration not stated), the melting point was 30 to 34 °C.

Compound O=C(c1cccs1)c1noc(-c2ccc(Cl)cc2)c1S(=O)(=O)c1ccccc1 has a melting point of 125 °C.

In the case of OC(c1ccccc1)c1ccc(C(F)(F)F)cc1 (configuration not stated), the melting point was 60 °C.

CN(C)C(=O)N(C(=O)c1ccccc1)c1ccc(Cl)c(Cl)c1 gave a melting point of 119 °C.

O=[N+]([O-])N1CCCCC1 gave a melting point of -5.5 °C.

With CC(C(=O)O)c1ccc(C(=O)c2ccccc2)s1 (configuration not stated) the melting point was 96 °C.

With CNCc1ccc(-c2ncccn2)cc1 the melting point was 49.5 to 54.9 °C.

In the case of O=C1C=CC(=O)C1, the melting point was 37 °C.

Compound CC(=O)NC1C(Oc2c[nH]c3ccc(Br)c(Cl)c23)OC(CO)C(O)C1O (configuration not stated) has a melting point of 246 to 248 °C.

In the case of NC(=S)NCCc1ccccc1, the melting point was 150 to 152 °C.

In the case of Cc1ccc2cccc(C)c2c1, the melting point was -13.9 °C.

Cn1c(N)nc2ccccc21 showed a melting point of 203 to 206 °C.

In the case of N#Cc1ccc(C(F)(F)F)cc1Cl, the melting point was 83 °C.

For CC1OC(OC2C(Oc3cc(O)c4c(c3)OC(c3ccc(O)cc3)CC4=O)OC(CO)C(O)C2O)C(O)C(O)C1O (configuration not stated), the melting point was 166 °C.

In the case of N#CC(c1ccc(Cl)cc1)c1c(Cl)cc(-n2ncc(=O)[nH]c2=O)cc1Cl (configuration not stated), the melting point was 295 °C.

Cc1cccc2cc3c(ccc4ccccc43)cc12 showed a melting point of 156 °C.

Compound COC(=O)c1cccc2cc[nH]c12 has a melting point of 46 to 47 °C.

In the case of Cc1nc(-c2ccc(S(=O)(=O)N3CCOCC3)cc2)c(-c2ccc(S(=O)(=O)N3CCOCC3)cc2)o1, the melting point was 245 to 248 °C.

For O=C(CBr)c1cc(-c2ccc(Cl)cc2Cl)no1, the melting point was 85 to 87 °C.

FC(Cl)C(F)Cl (configuration not stated) gave a melting point of -101 °C.

With COc1ccccc1/C=C(\C#N)c1nc2ccccc2n1C the melting point was 226 °C.

In the case of COc1ccc2cnc(C)cc2c1, the melting point was 115 °C.

For CCOP(=S)(OCC)Oc1ccc2c3c(c(=O)oc2c1)CCCC3, the melting point was 88.2 °C.

CCCCCCCCOc1ccc(C(C)=O)cc1 showed a melting point of 30 to 32 °C.

CCc1ccc(Cc2ccccc2)cc1 showed a melting point of -24 °C.

Compound OC1CCCCC1Cl (configuration not stated) has a melting point of 29 °C.

CCOC(=O)C(Br)=NNc1ccc([N+](=O)[O-])cc1 showed a melting point of 199 to 200 °C.

With NS(=O)(=O)c1cc(F)c(Br)cc1F the melting point was 165 °C.

For O=C=Nc1ccccc1, the melting point was -31.3 °C.

With COC(=O)c1ccc(-c2cccs2)nc1 the melting point was 117 to 118 °C.

Work on Cc1ccc(C(=O)COc2c(C(=O)c3ccc(Cl)c(C)c3Cl)c(C)nn2C)cc1 yielded a melting point of 133 °C.

For CCOCCOC(=O)c1ccccc1C(=O)OCCOCC, the melting point was 34 °C.

Compound O=C1CC(C(=O)OCc2ccccc2)N1 (configuration not stated) has a melting point of 137 to 138 °C.

With CC(C)OC(=O)OOC(=O)OC(C)C the melting point was 10 °C.

CCOC(=O)c1cc(C)n(CO)n1 gave a melting point of 71 °C.

With O=C(O)c1cncc(C(=O)O)c1 the melting point was 324 °C.

CNCc1ccc(-n2ccnc2)cc1 showed a melting point of 67 to 69 °C.

For Cn1ccnc1CO, the melting point was 107 to 111 °C.

With COc1cc([N+](=O)[O-])c(OC)cc1N the melting point was 153 to 157 °C.

With CNc1ccc2cc3ccc(N(C)S(C)(=O)=O)cc3nc2c1CO the melting point was 150 °C.

CCCCCCCCCCCCCCCCCCI showed a melting point of 34 °C.

CC(C)(C)c1cc(C(C)(C)C)c([N+](=O)[O-])c(C(C)(C)C)c1 gave a melting point of 205 to 206 °C.

Compound CCOC(=O)c1ccccc1C(=O)c1ccccc1 has a melting point of 59.5 °C.

O=[N+]([O-])c1ccc(NS(=O)(=O)c2ccc(Cl)c(C(F)(F)F)c2)c(Cl)c1 gave a melting point of 170 °C.

With CC1CCCCN1 (configuration not stated) the melting point was -5 to -4 °C.

In the case of COc1ccc(Br)c2c1C(=NNc1ccc([N+](=O)[O-])cc1[N+](=O)[O-])C2, the melting point was 288 to 289 °C.

In the case of C#Cc1ccc(-c2cnco2)cc1, the melting point was 76 to 77 °C.

Cc1ccc(-c2csc(/C(C#N)=N\Nc3ccc(Cl)cc3Cl)n2)cc1 showed a melting point of 211 °C.

With CC(=O)c1ccc(OC2OC(CO)C(O)C(O)C2O)cc1 (configuration not stated) the melting point was 196 °C.

CCOC(=O)C(C(C)=O)C(=O)c1ccc(C(=O)C(C(C)=O)C(=O)OCC)cc1 (configuration not stated) showed a melting point of 99 °C.

Compound Nc1c(Br)cccc1C(=O)O has a melting point of 173 to 175 °C.

CCOCCOCCOC(C)=O showed a melting point of -25 °C.

For Cc1ccc(N2CSc3nnc(-c4cccc([N+](=O)[O-])c4)n3C2)cc1, the melting point was > 300 °C.

O=C(Nc1ccc2ncccc2c1)Nc1ccc2ncccc2c1 gave a melting point of 262 °C.

For CN1C(=O)CN=C(c2ccccc2F)c2cc(Cl)ccc21, the melting point was 296 °C.

N=C(N)N1CCc2ccccc2C1 gave a melting point of 279 °C.

NC(=O)c1c(F)c(F)c(N)c(F)c1F gave a melting point of 183 to 187 °C.

Work on NS(=O)(=O)c1cc2c(cc1C(F)(F)F)NC(Cc1ccccc1)NS2(=O)=O (configuration not stated) yielded a melting point of 222 °C.

Clc1nc2ccccc2[nH]1 showed a melting point of 200 °C.

For COC(=O)C1(C(=O)OC)Cc2ccccc2C(=O)O1, the melting point was 113 °C.

For O=C(O)C(O)c1ccccc1F (configuration not stated), the melting point was 115 °C.

Work on Cc1cc(Cl)ccc1OCC(=O)O yielded a melting point of 120 °C.

In the case of COc1ccc2[nH]cnc2c1, the melting point was 122 °C.

Work on CCCCCCCCCCCCCCN yielded a melting point of 83.1 °C.

With COCCOCCOCCO the melting point was -44 °C.

CCCCCCOc1ccccc1 showed a melting point of -19 °C.

Compound Oc1ccc(C(O)C2CCCCN2)cc1O (configuration not stated) has a melting point of 204 °C.

Compound O=[N+]([O-])c1cccc(OCCCCBr)c1 has a melting point of 62 to 63 °C.

Compound CCO[Si](CCCN)(OCC)OCC has a melting point of -70 °C.

For O=C(C1=NOC2C(=O)N(c3ccc(Cl)cc3)C(=O)C12)c1ccccc1 (configuration not stated), the melting point was 137 °C.

For CCCCC(=O)OCC(=O)C1C(C)CC2C3CC(F)C4=CC(=O)C=CC4(C)C3(F)C(O)CC21C (configuration not stated), the melting point was 195 °C.

Compound Cc1nc2ccccc2n1CCCC(=O)O has a melting point of 234 to 238 °C.

With O=C1OC(OC2OC(=O)c3ccccc32)c2ccccc21 (configuration not stated) the melting point was 222 °C.

With CC(C)(C)OC(=O)NCCC(N)=S the melting point was 109 to 112 °C.

In the case of NS(=O)(=O)c1ccc(SCCO)c(F)c1, the melting point was 110 °C.

COc1cc(Cl)c(Cl)cc1Cl showed a melting point of 77.5 °C.

With CC(=O)N1CCc2cc([N+](=O)[O-])ccc21 the melting point was 177 °C.

Compound Oc1ccnc(O)c1 has a melting point of 278 °C.

Work on O=C(c1ccc(Cl)cc1)c1noc(-c2ccc(Br)cc2)c1S(=O)(=O)c1ccccc1 yielded a melting point of 125 °C.

With O=C(CCl)c1ccc(C(=O)CCl)cc1 the melting point was 153 °C.

Compound O=c1[nH]c2ccc(S(=O)(=O)CCO)cc2o1 has a melting point of 207 to 211 °C.
